According to paper PMC13289030, “Qualification of the human Reconstructed Intestine Micronuclei Cytome assay for site-of-contact genotoxic hazard identification” (NAM journal, 2025):
≈ marks a conversion by molar mass, not a printed value. Entries after “also recorded” stand apart in the source; their conditions may differ. Read-outs that look alike come from different tables or passages of the source. Where a SMILES comes first, the peptide text is derived from it.

Key:
[1] = cited from earlier work
[2] = published genotoxic profile; ref Kirkland et al., 2016; EFSA; cited from earlier work
[3] = tested on: EpiIntestinal™ microtissues; test: Cytotoxicity / relative cell count (RCC) of dissociated EpiIntestinal microtissues; conditions: for Cytotoxicity / cell viability (result in words) / Cytotoxicity: 10-day exposure; for Cytotoxicity / cell viability (result in words): tested doses
[4] = tested on: EpiIntestinal™ microtissues; test: RICyt assay: micronuclei (MN) cytome scoring in EpiIntestinal microtissues after 10-day repeated apical exposure
[5] = Test material solubility limit for top test concentration; type: physicochemical; conditions: for solubility: read-out: Concentration above which test material is insoluble (top test concentration)
[6] = tested on: EpiIntestinal™ microtissues
topoisomerase II = tested on: topoisomerase II; design: method as in Maralhas et al., 2006; conditions: ref Maralhas et al., 2006; cited from earlier work
[7] = tested on: EpiIntestinal™ microtissues; remark: listed apart in the source
Caco-2 = conditions: ref Schrenk et al., 2022; cited from earlier work
[8] = tested on: EpiIntestinal™ microtissues; conditions: cited from earlier work
[9] = published genotoxic profile, ref Kirkland et al., 2016, EFSA
[10] = 10-day exposure, relative to solvent control and historical negative control range (≤2.4 %)
[11] = 10-day exposure, positive = significant, dose-dependent %MN increase above historical negative range (>2.4 %)

Compound	In vivo genotoxicity tests [1, 9]	In vitro genotoxicity tests [2]	Cytotoxicity / cell viability (result in words) [3]	Karyorrhectic cells (cytome analysis) ([4]; 10-day exposure)	%MN induction (result in words) [4, 10]	In vivo genotoxicity tests ([1]; in vivo)	other results
O=Cc1ccc(CO)o1 [5-Hydroxymethyl furfural, 5-Hydroxymethylfurfural]	- MN	+ Comet and SCE - for MN	Cytotoxicity was observed with increasing doses	increase in karyorrhectic cell population though not statistically significant	consistently low without exceeding the historical negative range		RICyt outcome (genotoxic classification) [4, 11]: Negative; RICyt outcome (genotoxic classification) ([4]; 10-day exposure, positive = significant, dose-dependent %MN increase above historical negative range (>2.4 %), listed as 5-HMF): clear negative
COC(=O)[C@H](Cc1ccccc1)NC(=O)[C@@H](N)CC(=O)O [Aspartame] (H-Asp-Phe-OMe)	- MN, comet and CA	- CA and MN - SCE	did not produce significant %MN and cytotoxicity		did not produce significant %MN		RICyt outcome (genotoxic classification) [4, 11]: Negative; RICyt outcome (genotoxic classification) ([4]; 10-day exposure, positive = significant, dose-dependent %MN increase above historical negative range (>2.4 %), listed as aspartame): clear negative
COc1cc(/C=C/C(=O)CC(=O)/C=C/c2ccc(O)c(OC)c2)ccc1O [Curcumin]				increase in karyorrhectic cells	no significant formation of MN		solubility ([5]; in solvent/culture media): 50 µg/mL (≈ 136 µM); Cytotoxicity ([3]; at higher doses / top two concentrations): 15–20%
CCOS(C)(=O)=O [Ethyl methanesulfonate]						+ MN, comet and CA	Cytotoxicity / cell viability (result in words) [6]: no observable cytotoxicity
C=CCc1ccc(O)c(OC)c1 [Eugenol]			cytotoxicity observed in the tested doses	consistent increase in karyorrhectic cell population		+ MN only at very high doses. Equivocal	Topoisomerase II activity (topoisomerase II): could inhibit topoisomerase II activity; Genotoxicity in vivo ([1]; in vivo): genotoxic positive; %MN induction (result in words) ([4]; 10-day exposure, relative to solvent control and historical negative control range (≤2.4 %), listed as EUG): very close to the established 95 % upper confident limits; RICyt outcome (genotoxic classification) [4, 11]: Equivocal
Nc1nc(N)nc(N)n1 [Melamine]			No genotoxicity nor cytotoxicity were detected		not significant and below the historical negative range		solubility ([5]; in solvent/culture media): 500 µg/mL (≈ 3960 µM)
CC(C)=CCC/C(C)=C/CC/C(C)=C/CC/C(C)=C/CC/C(C)=C/CC/C(C)=C/CC/C(C)=C/CC1=C(C)C(=O)c2ccccc2C1=O [Menaquinone 7]			no significant MN induction nor cytotoxicity		no significant MN induction		Concentration above which test material is insoluble (top test concentration) ([5]; in solvent/culture media): 1000 µg/mL; Other nuclear anomalies (cytome analysis) ([4]; 10-day exposure): not detected
C[C@H]1C(=O)O[C@@H]2CCN3CC=C(COC(=O)[C@](C)(O)[C@]1(C)O)[C@H]23 [Monocrotaline]						+ DNA adduct, DNA crosslinking and MN	%MN increment ([7]; human): 2.53%; Cytotoxicity / cell viability (result in words) [6]: without obvious cytotoxicity; Gut permeability (Caco-2): moderate gut permeability
CCN(N=O)C(N)=O [N-Ethyl-N-nitrosourea]	+ CA, MN, comet	+ MN, CA, MLA, HPRT mutations and UDS		non-significant increase in karyorrhectic cells	statistically significant increases in MN in a dose dependent manner		Cytotoxicity ([3]; across tested concentrations (ENU up to 150 µg/ml; GA up to 25 µg/ml)): ≤ 15%; %MN induction (result in words) ([4]; 10-day exposure, relative to solvent control and historical negative control range (≤2.4 %), listed as ENU): positive induction of MN
CC(=O)O[C@H]1C(=O)[C@@]2(C)[C@H]([C@H](OC(=O)c3ccccc3)[C@]3(O)C[C@H](OC(=O)[C@H](O)[C@@H](NC(=O)c4ccccc4)c4ccccc4)C(C)=C1C3(C)C)[C@]1(OC(C)=O)CO[C@@H]1C[C@@H]2O [Paclitaxel]	+ MN in bone marrow and liver	+ MN, polyploidy in a CA test and in MLA	decrease in cell viability at the top two exposed doses	non-significant but dose dependent increase in karyorrhectic cell population	statistically significant increase in %MN; also recorded: positive induction of MN		RICyt outcome (genotoxic classification) [4, 11]: true positive
c1ccc2c(c1)cc1ccc3cccc4ccc2c1c34 [benzo(a)pyrene]							MN induction / genotoxicity in RICyt platform [8]: genotoxicity was successfully detected
CC(C)[C@@H]1CC[C@@H](C)C[C@H]1O [d,l-Menthol, D,L-MENTHOL]						-	Concentration above which test material is insoluble (top test concentration) [5]: 500 µg/mL; %MN induction (result in words) [7]: low level of MN which fell within 95 % confident limit of the historical negative control; Cytotoxicity / cell viability (result in words) [6]: no significant impact on cell viability
CC[C@]1(O)C[C@@H]2CN(CCc3c([nH]c4ccccc34)[C@@](C(=O)OC)(c3cc4c(cc3OC)N(C)[C@H]3[C@@](O)(C(=O)OC)[C@H](OC(C)=O)[C@]5(CC)C=CCN6CC[C@]43[C@@H]65)C2)C1 [vinblastine]							MN induction / genotoxicity in RICyt platform ([8]; previous publication, ref Lim et al., 2022): positive induction of MN
C/C=C\c1cc(OC)c(OC)cc1OC [β-asarone]	MN negative	+ MN, comet and SCE					RICyt outcome (genotoxic classification) [7]: Negative; Cytotoxicity / cell viability (result in words) [6]: Increases in cytotoxicity at the top two doses
Aflatoxin B1						+ MN, CA, UDS − comets	Loss/reduction in cell viability [3]: ~40%; %MN induction (result in words) [4]: significant and dose-dependent formation of MN; RICyt outcome (genotoxic classification) [4]: genotoxicity was successfully detected; also recorded: Positive
